Results on 23 compounds are retold here after US8796313B2, “Substituted dihydroisoindolones as allosteric modulators of glucokinase” (Janssen Pharmaceutica N.V., priority 2005, dated 2014).

pEC50: −log10 of the molar value.

The target of this test is T1, human pancreas Glucokinase (GK) (Homo sapiens, UniProt P35557).
T1 construct: His6; made in house; host or cells: Escherichia coli
T1 sequence (P35557 1-465): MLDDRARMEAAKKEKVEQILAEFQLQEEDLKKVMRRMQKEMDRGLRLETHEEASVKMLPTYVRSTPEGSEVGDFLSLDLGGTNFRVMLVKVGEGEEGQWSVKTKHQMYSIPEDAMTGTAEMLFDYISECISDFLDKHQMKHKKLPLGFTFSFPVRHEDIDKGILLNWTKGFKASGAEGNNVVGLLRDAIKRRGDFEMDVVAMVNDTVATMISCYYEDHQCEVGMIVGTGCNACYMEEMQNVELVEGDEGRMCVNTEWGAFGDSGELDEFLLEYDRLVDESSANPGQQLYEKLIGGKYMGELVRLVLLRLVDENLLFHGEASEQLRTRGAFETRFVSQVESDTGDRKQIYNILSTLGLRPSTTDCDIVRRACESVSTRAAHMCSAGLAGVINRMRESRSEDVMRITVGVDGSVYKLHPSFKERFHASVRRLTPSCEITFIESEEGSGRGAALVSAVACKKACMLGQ
Description: Glucokinase enzyme assay, pancreas GK. Conditions: for activation at 50 µM: increase in GK activity above vehicle control, compound 50 μM, 12 mM glucose; for pEC50: concentration that produces 50% activation above vehicle control; for EC100%: concentration that produces 100% activation above vehicle control. Type of test: biochemical. The text has this:
An enzymatic Glucokinase (GK) assay using purified recombinant human liver/pancreas enzyme was used to evaluate the effects of potential small molecule modulators.
In this assay, GK catalyzes glucose phosphorylation in the presence of ATP. The product of this reaction, glucose-6-phosphate, was then oxidized by an excess of glucose-6-phosphate dehydrogenase to produce gluconate-6-phosphate with concomitant reduction of nicotinamide adenine dinucleotide (NAD). […] Human GK (Liver/Pancreas) was expressed in Escherichia coli as a (His) 6-tagged fusion protein and was purified by metal chelate affinity chromatography. The assay was performed in a final incubation volume of 80 μl in a 96-well clear low UV absorption plates. The incubation mixture consisted of 25 mM HEPES, 2 mM MgSO4, 1 mM dithiothreotol (DTT), 1 mg/mL bovine serum albumin (BSA), 1 mM ATP, 1 mM NAD, and 12 mM glucose, 10 units per mL glucose-6-phosphate dehydrogenase, and +/−300 ng per mL GK. For determination of the affinity (Km) and Vmax, different concentrations of glucose ranging from 0.5 mM to 40 mM were used in the assay; see Grimsby, J., Sarabu, R.; Grippo, J. F.; et. al. Science 2003, 301, 370-373. […] EC50% (μM) was calculated as the effective concentration of the compound that produces 50% activation above the vehicle control, and EC100% (μM) was calculated as the effective concentration of the compound that produces 100% activation above the vehicle control.

In the case of `O=C(CC1c2ccccc2C(=O)N1Cc1ccc(F)cc1)Nc1ccc(C(=O)O)cn1` (stereo not drawn) [Compound 6, 6-{2-[2-(4-Fluoro-benzyl)-3-oxo-2,3-dihydro-1H-isoindol-1-yl]-acetylamino}-nicotinic acid], the activation at 50 µM was determined as 7.92%.
Regarding `O=C(CCC1c2ccccc2C(=O)N1Cc1ccc(F)cc1)Nc1ccc(C(=O)O)cn1` (stereo not drawn) [Compound 7, 6-{3-[2-(4-Fluoro-benzyl)-3-oxo-2,3-dihydro-1H-isoindol-1-yl]-propionylamino}-nicotinic acid], the pEC50 – broadly, the EC50 on a negative log10 scale, so that one unit is a factor of ten – was 5.41; the “EC100%” value was 15 µM; the activation at 50 µM is 153%.
The matching figures for `COc1ccc(CN2C(=O)c3ccccc3C2CCC(=O)Nc2ccc(C(=O)O)cn2)cc1` (stereo not drawn) [Compound 8, 6-{3-[2-(4-Methoxy-benzyl)-3-oxo-2,3-dihydro-1H-isoindol-1-yl]-propionylamino}-nicotinic acid]: 5.49, 11 µM and 167%.
For `COC(=O)c1ccc(NC(=O)CCC2c3ccccc3C(=O)N2Cc2ccc(OC)cc2)nc1` (stereo not drawn) [Compound 9, 6-{3-[2-(4-Methoxy-benzyl)-3-oxo-2,3-dihydro-1H-isoindol-1-yl]-propionylamino}-nicotinic acid methyl ester], in that order: 6.40, 1.7 µM and 172%.
For the compound `COc1ccc(CN2C(=O)c3ccccc3C2CCS(=O)(=O)Nc2nccs2)cc1` (stereo not drawn) [Compound 10, 2-[2-(4-Methoxy-benzyl)-3-oxo-2,3-dihydro-1H-isoindol-1-yl]-ethanesulfonic acid thiazol-2-ylamide], the activation at 50 µM worked out at 15.8%.
For `O=C(CCC1c2c(F)cccc2C(=O)N1Cc1ccc(F)cc1)Nc1ccc(C(=O)O)cn1` (stereo not drawn) [Compound 11, 6-{3-[7-Fluoro-2-(4-fluoro-benzyl)-3-oxo-2,3-dihydro-1H-isoindol-1-yl]-propionylamino}-nicotinic acid], the pEC50 is 7.17, the “EC100%” value stood at 0.128 µM and the activation at 50 µM was determined as 229%.
`O=C(CCC1c2c(F)cccc2C(=O)N1Cc1ccc(F)cc1)Nc1ccccn1` (stereo not drawn) [Compound 12, 3-[7-Fluoro-2-(4-fluoro-benzyl)-3-oxo-2,3-dihydro-1H-isoindol-1-yl]-N-pyridin-2-vi-propionamide]: the pEC50 is 7.03, the “EC100%” value was found to be 0.74 µM and the activation at 50 µM turned out to be 179%.
`O=C(CCC1c2c(F)cccc2C(=O)N1Cc1ccc(F)cc1)Nc1cnccn1` (stereo not drawn) [Compound 13, 3-[7-Fluoro-2-(4-fluoro-benzyl)-3-oxo-2,3-dihydro-1H-isoindol-1-yl]-N-pyrazin-2-yl-propionamide]: the negative-log EC50 (pEC50) was 6.62, the “EC100%” value came out at 0.88 µM and the activation at 50 µM is 272%.
The matching figures for `O=C(CCC1c2c(F)cccc2C(=O)N1Cc1ccc(F)cc1)Nc1ccc(F)cn1` (stereo not drawn) [Compound 14, 3-[7-Fluoro-2-(4-fluoro-benzyl)-3-oxo-2,3-dihydro-1H-isoindol-1-yl]-N-(5-fluoro-pyridin-2-yl)-propionamide]: 6.97, 0.699 µM and 219%.
For `O=C(CCC1c2cccc(F)c2C(=O)N1Cc1ccc(F)cc1)Nc1ccc(C(=O)O)cn1` (stereo not drawn) [Compound 15, 6-{3-[4-Fluoro-2-(4-fluoro-benzyl)-3-oxo-2,3-dihydro-1H-isoindol-1-yl]-propionylamino}-nicotinic acid], in that order: 6.28, 3.4 µM and 188%.
The compound `O=C(Nc1ccccn1)OCCC1c2c(F)cccc2C(=O)N1Cc1ccc(F)cc1` (stereo not drawn) [Compound 16, Pyridin-2-yl-carbamic acid 2-[7-fluoro-2-(4-fluoro-benzyl)-3-oxo-2,3-dihydro-1H-isoindol-1-yl]-ethyl ester] registered an activation at 50 µM of 13.8%.
As to `O=C(Nc1ccccn1)OCCC1c2cccc(F)c2C(=O)N1Cc1ccc(F)cc1` (stereo not drawn) [Compound 17, Pyridin-2-yl-carbamic acid 2-[4-fluoro-2-(4-fluoro-benzyl)-3-oxo-2,3-dihydro-1H-isoindol-1-yl]-ethyl ester], the activation at 50 µM was 23.8%.
Take `O=C(CCC1c2c(F)ccc(F)c2C(=O)N1Cc1ccc(F)cc1)Nc1ccc(C(F)(F)F)cn1` (stereo not drawn) [Compound 18, 3-[4,7-Difluoro-2-(4-fluoro-benzyl)-3-oxo-2,3-dihydro-1H-isoindol-1-yl]-N-(5-trifluoromethyl-pyridin-2-yl)-propionamide]: the negative logarithm of the EC50 (pEC50) is 5.70, the “EC100%” value was 46 µM and the activation at 50 µM stood at 95%.
Turning to `COc1ccc(CN2C(=O)c3ccccc3C2COC(=O)Nc2ccccn2)cc1` (stereo not drawn) [Compound 19, Pyridin-2-yl-carbamic acid 2-(4-methoxy-benzyl)-3-oxo-2,3-dihydro-1H-isoindol-1-ylmethyl ester], the negative logarithm of the EC50 (pEC50) is 5.32, the “EC100%” value came out at 70 µM and the activation at 50 µM turned out to be 115%.
For `O=C(CCC1c2c(F)ccc(F)c2C(=O)N1Cc1ccc(F)cc1)Nc1ccc(C(=O)O)cn1` (stereo not drawn) [Compound 20, 6-{3-[4,7-Difluoro-2-(4-fluoro-benzyl)-3-oxo-2,3-dihydro-1H-isoindol-1-yl]-propionylamino}-nicotinic acid], in that order: 6.69, 0.65 µM and 302%.
For `CCOC(=O)c1csc(NC(=O)CCC2c3c(F)ccc(F)c3C(=O)N2Cc2ccc(F)cc2)n1` (stereo not drawn) [Compound 21, 2-{3-[4,7-Difluoro-2-(4-fluoro-benzyl)-3-oxo-2,3-dihydro-1H-isoindol-1-yl]-propionylamino}thiazole-4-carboxylic acid ethyl ester], in that order: 5.51, 26.6 µM and 94.4%.
The matching figures for `O=C(O)Cc1csc(NC(=O)CCC2c3c(F)ccc(F)c3C(=O)N2Cc2ccc(F)cc2)n1` (stereo not drawn) [Compound 22, (2-{3-[4,7-Difluoro-2-(4-fluoro-benzyl)-3-oxo-2,3-dihydro-1H-isoindol-1-yl]-propionylamino}-thiazol-4-yl)-acetic acid]: 4.68, 188 µM and 73.7%.
Take `CCOC(=O)c1ccnc(NC(=O)CCC2c3c(F)cccc3C(=O)N2Cc2ccc(F)cc2)c1` (stereo not drawn) [Compound 23, 2-{3-[7-Fluoro-2-(4-fluoro-benzyl)-3-oxo-2,3-dihydro-1H-isoindol-1-yl]-propionylamino}-isonicotinic acid ethyl ester]: the activation at 50 µM amounted to 30.6%.
Same read-out and setting: under `COc1ccc(CN2C(=O)c3ccccc3C2CNC(=O)Nc2ccccn2)cc1` (stereo not drawn) [Compound 24, 1-[2-(4-Methoxy-benzyl)-3-oxo-2,3-dihydro-1H-isoindol-1-ylmethyl]-3-pyridin-2-yl-urea] stands 4.39%; under `O=C(CCC1c2c(F)ccc(F)c2C(=O)N1Cc1ccc(F)cc1)Nc1nc(C(=O)O)cs1` (stereo not drawn) [Compound 25, 2-{3-[4,7-Difluoro-2-(4-fluoro-benzyl)-3-oxo-2,3-dihydro-1H-isoindol-1-yl]-propionylamino}-thiazole-4-carboxylic acid], 72.5%.
As to `COC(=O)c1ccc(NC(=O)CCC2c3c(F)cccc3C(=O)N2Cc2ccc(F)cc2)nc1` (stereo not drawn) [Compound 26, 6-{3-[7-Fluoro-2-(4-fluoro-benzyl)-3-oxo-2,3-dihydro-1H-isoindol-1-yl]-propionylamino}-nicotinic acid methyl ester], the pEC50 was 7.60, the “EC100%” value was found to be 0.46 µM and the activation at 50 µM came out at 173%.
`O=C(CCC1c2c(F)cccc2C(=O)N1Cc1ccc(F)cc1)Nc1ncc(Br)s1` (stereo not drawn) [Compound 27, N-(5-Bromo-thiazol-2-yl)-3-[7-fluoro-2-(4-fluoro-benzyl)-3-oxo-2,3-dihydro-1H-isoindol-1-yl]-propionamide] showed a pEC50 of 4.40 and an activation at 50 µM of 65%.
On to `O=C(CCC1c2c(F)cccc2C(=O)N1Cc1ccc(F)cc1)Nc1ccc2ccccc2n1` (stereo not drawn) [Compound 28, 3-[7-Fluoro-2-(4-fluoro-benzyl)-3-oxo-2,3-dihydro-1H-isoindol-1-yl]-N-quinolin-2-yl-propionamide], for which the pEC50 was 6.89, the “EC100%” value came out at 6.3 µM and the activation at 50 µM was found to be 120%.
